Experimental findings from the supplement of paper PMC7455731 are described below.

The series in a line: collision cross section (DTIM-MS, N2); higher = larger ion. The protocol: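 Collision cross section (CCS) of drug and natural-product chemical standards (validation set 2, measured in this paper). Three independent measurements were made across 2 months; the value taken is their mean (avg_ccs), for the ion adduct given.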

On to `COc1cc([C@H]2Oc3cc([C@H]4Oc5cc(O)cc(O)c5C(=O)[C@@H]4O)ccc3O[C@@H]2CO)ccc1O` [Silybin], for which the collision cross section reads like this: (ion adduct: [M+H]+) 208.54 Å²; (ion adduct: [M-H]-) 204.63 Å².
In the case of `O=C1C(O)=C([C@H]2CC[C@H](c3ccc(Cl)cc3)CC2)C(=O)c2ccccc21` [Atovaquone], the collision cross section (ion adduct: [M-H]-) stood at 193.52 Å².
Under “ion adduct: [M-H]-”, `CC(C)(C)[C@]1(O)C[C@@H]2OC(=O)C[C@@]23C(=O)O[C@@H]2OC(=O)[C@H](O)[C@]213` [(-)-Bilobalide] displayed a collision cross section of 162.4 Å².
For `COc1ccc(CC2c3cc(Oc4cc(CC5c6cc(OC)c(OC)cc6CCN5C)ccc4O)c(OC)cc3CCN2C)cc1` (centres undefined) [Neferine], the collision cross section (ion adduct: [M+H]+) was 242.9 Å² and the collision cross section (ion adduct: [M-H]-) was 252.96 Å².
Compound `Nc1[nH]c(=O)ncc1F` [Fluorocytosine] registered a collision cross section (ion adduct: [M+H]+) of 119.97 Å².
In the case of `CC(C)C1=CC2=CC[C@@H]3[C@](C)(CCC[C@@]3(C)C(=O)O)[C@H]2CC1` [Abietic acid], the collision cross section is, setting by setting: (ion adduct: [M+H]+) 174.96 Å²; (ion adduct: [M-H]-) 185.72 Å².
Take `C=C[C@](C)(O)CC[C@@H]1[C@@]2(C)CCCC(C)(C)[C@@H]2CC[C@@]1(C)O` [Sclareol]: for the setting “ion adduct: [M-H]-”, the collision cross section was 178.93 Å².
As for `COc1cc(O)cc(O)c1C(=O)/C=C/c1ccccc1` [Cardamonin], the collision cross section turned out to be 164.02 Å² (ion adduct: [M+H]+) and 167.35 Å² (ion adduct: [M-H]-).
`CC1CCC=C2C(=O)CC3OOC(C)(C)C3C21C` (centres undefined) [Nardosinone] had a collision cross section (ion adduct: [M-H]-) of 156.3 Å².
With `Oc1c(Cl)cc(Cl)cc1Sc1cc(Cl)cc(Cl)c1O` [Bithionol], under “ion adduct: [M-H]-”, the collision cross section was determined as 169.35 Å².
Compound `CC(C)=C1C/C=C(\C)CC/C=C(\C)CC1=O` [Germacrone] had a collision cross section (ion adduct: [M+H]+) of 149.53 Å².
With `Cc1ncc([N+](=O)[O-])n1C` [Dimetridazole], the collision cross section (ion adduct: [M+H]+) came out at 127.62 Å².
For `C/C=C1/[C@H](O[C@@H]2O[C@H](CO)[C@@H](O)[C@H](O)[C@H]2O)OC=C(C(=O)OC)[C@H]1CC(=O)OCCc1ccc(O)c(O)c1` [Oleuropein], for the setting “ion adduct: [M-H]-”, the collision cross section came to 217.92 Å².
In the case of `CC1(C)CCC[C@](C)([C@H]2CC[C@]3(C)[C@@H]2[C@H](O)C[C@@H]2[C@@]4(C)CC[C@H](O)C(C)(C)[C@@H]4CC[C@]23C)O1` [Panaxadiol], the collision cross section (ion adduct: [M+H]+) was 218.82 Å².
Take `COC(=O)c1cc(OC)c(O)c(OC)c1` [Methyl syringate]: the collision cross section (ion adduct: [M-H]-) turned out to be 146.35 Å².
On to `COc1cc(C2Oc3ccc(C4Oc5cc(O)cc(O)c5C(=O)C4O)cc3OC2CO)ccc1O` (centres undefined) [Isosilybin], for which the collision cross section (ion adduct: [M+H]+) was determined as 214.42 Å².
For the compound `COc1cc(C2c3cc4c(cc3C(O)C3COC(=O)C23)OCO4)cc(OC)c1O` (centres undefined) [4'-Demethylpodophyllotoxin], the collision cross section reads like this: (ion adduct: [M+H]+) 195.99 Å²; (ion adduct: [M-H]-) 197.38 Å².
`NC[C@H]1O[C@H](O[C@H]2[C@H](O)[C@@H](O[C@H]3O[C@H](CO)[C@@H](O)[C@H](N)[C@H]3O)[C@H](N)C[C@@H]2N)[C@H](N)C[C@@H]1O` [Tobramycin]: the collision cross section runs as follows: (ion adduct: [M+H]+) 202.65 Å²; (ion adduct: [M-H]-) 203.66 Å².
For the compound `Nc1nc(Cl)nc2c1ncn2[C@@H]1O[C@H](CO)[C@@H](O)[C@@H]1F` [Clofarabine], the collision cross section came to 158.19 Å² (ion adduct: [M+H]+) and 162.03 Å² (ion adduct: [M-H]-).
With `CC(/C=C/C=C(\C)C(=O)O[C@@H]1O[C@H](CO)[C@@H](O)[C@H](O)[C@H]1O)=C\C=C\C=C(C)\C=C\C=C(/C)C(=O)O[C@@H]1O[C@H](CO[C@@H]2O[C@H](CO)[C@@H](O)[C@H](O)[C@H]2O)[C@@H](O)[C@@H](O)[C@H]1O` [Crocin II], the collision cross section (ion adduct: [M-H]-) is given as 280.87 Å².
As to `COC1=CC(=O)O[C@@H](/C=C/c2ccccc2)C1` [Kawain], the collision cross section (ion adduct: [M+H]+) came to 150.52 Å².
As to `COc1c(C=CC(=O)c2ccc(O)cc2)ccc(O)c1O` [Licochalcone B], the collision cross section runs as follows: (ion adduct: [M+H]+) 170.36 Å²; (ion adduct: [M-H]-) 171.14 Å².
`O=C(C=Cc1ccc(O)c(O)c1)OC1CC(O)(C(=O)O)CC(O)C1OC(=O)C=Cc1ccc(O)c(O)c1` (centres undefined) [4,5-Dicaffeoylquinic acid] yielded a collision cross section (ion adduct: [M-H]-) of 213.46 Å².
Regarding `CC(C)=CC(=O)OC1Cc2cc3ccc(=O)oc3cc2OC1(C)C` (centres undefined) [Decursin], the collision cross section reads like this: (ion adduct: [M+H]+) 185.63 Å²; (ion adduct: [M-H]-) 180.82 Å².
In the case of `c1ccc2c(c1)Nc1ccccc1S2` [Phenothiazine], the collision cross section (ion adduct: [M-H]-) is on record as 140.54 Å².
`Cn1c(=O)c2c(ncn2CC(=O)O)n(C)c1=O` [Theophylline-7-acetic acid] returned a collision cross section (ion adduct: [M+H]+) of 152.03 Å².
For `CC(=O)/C=C/c1ccccc1` [trans-4-phenylbut-3-en-2-one], the collision cross section (ion adduct: [M+H]+) turned out to be 131.24 Å².
`CNC[C@H](O)[C@@H](O)[C@H](O)[C@H](O)CO` [Meglumine]: the collision cross section (ion adduct: [M+H]+) is listed as 141.05 Å² and the collision cross section (ion adduct: [M-H]-) came to 139.8 Å².
Under “ion adduct: [M-H]-”, `OC[C@@H](O)[C@@H](O[C@H]1O[C@H](CO)[C@@H](O)[C@H](O)[C@H]1O)[C@H](O)[C@@H](O)CO` [Maltitol] returned a collision cross section of 169.57 Å².
Take `COc1ccc(CCC(=O)c2c(O)cc(O[C@@H]3O[C@H](CO)[C@@H](O)[C@H](O)[C@H]3O[C@@H]3O[C@@H](C)[C@H](O)[C@@H](O)[C@H]3O)cc2O)cc1O` [Neosperidin dihydrochalcone]: the collision cross section (ion adduct: [M+H]+) was found to be 233.96 Å².
For the compound `CC1(C)CC[C@]2(C(=O)O[C@@H]3O[C@H](CO)[C@@H](O)[C@H](O)[C@H]3O)CC[C@]3(C)C(=CC[C@@H]4[C@@]5(C)CC[C@H](O[C@@H]6O[C@H](C(=O)O)[C@@H](O)[C@H](O)[C@H]6O[C@@H]6O[C@H](CO)[C@@H](O)[C@H](O)[C@H]6O)C(C)(C)[C@@H]5CC[C@]43C)[C@@H]2C1` [Ginsenoside Ro], the collision cross section (ion adduct: [M-H]-) is 310.46 Å².
Consider `O=C(Nc1nc(-c2ccc(O)c(O)c2)c(-c2ccccc2)s1)c1ccc(O)c(O)c1` [COH29], for which the collision cross section (ion adduct: [M+H]+) was 207.91 Å² and the collision cross section (ion adduct: [M-H]-) stood at 200.74 Å².
`CCOc1cc(C=O)ccc1O` [Ethyl vanillin] returned a collision cross section (ion adduct: [M-H]-) of 133.69 Å².
As to `Nc1nc(=S)c2[nH]cnc2[nH]1` [Thioguanine], the collision cross section is reported as 132.57 Å² (ion adduct: [M+H]+) and 128.86 Å² (ion adduct: [M-H]-).
`COc1cc(CCC(C)=O)ccc1O` [Zingerone]: the collision cross section (ion adduct: [M-H]-) is 146.57 Å².
`Cc1cccc(Nc2ccccc2C(=O)O)c1C` [Mefenamic acid] gave a collision cross section (ion adduct: [M+H]+) of 154.75 Å².
In turn, `Nc1ccn([C@@H]2O[C@H](CO)[C@@H](O)[C@@H]2O)c(=O)n1` [Cytarabine] yielded a collision cross section (ion adduct: [M-H]-) of 151.89 Å².
`O=C1C[C@@H](c2ccc(O)cc2)Oc2cc(O)ccc21` [Liquiritigenin]: the collision cross section stood at 162 Å² (ion adduct: [M+H]+) and 161.75 Å² (ion adduct: [M-H]-).
Where the note is “ion adduct: [M+H]+”, `COc1ccc2ccc(=O)oc2c1` [7-Methoxycoumarin] displayed a collision cross section of 131.39 Å².
Turning to `Nc1nc2c(ncn2COCCO)c(=O)[nH]1` [Aciclovir], the collision cross section by setting is: (ion adduct: [M+H]+) 149.17 Å²; (ion adduct: [M-H]-) 148.31 Å².
